Measured values reported in patent publication US20250270209A1 (INTERLINE THERAPEUTICS, INC., priority 2022, published 2025).

How the values were obtained:
[1] = target: T1, wild type LRRK2 overexpressed in recombinant HEK-293T cells (Homo sapiens, UniProt Q5S007); test: pS935 LRRK2 Cell Assay (HTRF, phospho-LRRK2 Ser935); type: cell-based; conditions: LRRK2 Inhibition, Table 8, 2 hours compound incubation
T1 construct: host or cells: HEK293T (transient transfection with pCMV-LRRK2 WT plasmid)
How it was run: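 HEK-293T cells transiently transfected with wild-type LRRK2 for 24 h, plated overnight, then treated 2 h at 37° C with compound (top 10 μM, 3-fold, 9 doses, duplicates, 0.2% DMSO). Lysates probed overnight at 23° C by sandwich HTRF for pSer935; 665/615 nm ratio read.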

[2] = target: LRRK2 wild type enzyme (Homo sapiens, UniProt Q5S007); test: Biochemical Assay: LRRK2 TR-FRET (LanthaScreen) kinase assay with LRRKtide substrate; conditions: LRRK2 Inhibition, Table 8
How it was run: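 Human wild-type LRRK2 (3 nM) preincubated 15 min with compound (11-point, 3-fold, top 10 μM), then reacted 120 min at 23 °C with 400 nM LRRKtide and 25 μM ATP, pH 8.0. Stopped with EDTA; Tb-anti-pLRRKtide TR-FRET read after 30 min.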

Chain of LRRK2 wild type enzyme (Q5S007 whole entry): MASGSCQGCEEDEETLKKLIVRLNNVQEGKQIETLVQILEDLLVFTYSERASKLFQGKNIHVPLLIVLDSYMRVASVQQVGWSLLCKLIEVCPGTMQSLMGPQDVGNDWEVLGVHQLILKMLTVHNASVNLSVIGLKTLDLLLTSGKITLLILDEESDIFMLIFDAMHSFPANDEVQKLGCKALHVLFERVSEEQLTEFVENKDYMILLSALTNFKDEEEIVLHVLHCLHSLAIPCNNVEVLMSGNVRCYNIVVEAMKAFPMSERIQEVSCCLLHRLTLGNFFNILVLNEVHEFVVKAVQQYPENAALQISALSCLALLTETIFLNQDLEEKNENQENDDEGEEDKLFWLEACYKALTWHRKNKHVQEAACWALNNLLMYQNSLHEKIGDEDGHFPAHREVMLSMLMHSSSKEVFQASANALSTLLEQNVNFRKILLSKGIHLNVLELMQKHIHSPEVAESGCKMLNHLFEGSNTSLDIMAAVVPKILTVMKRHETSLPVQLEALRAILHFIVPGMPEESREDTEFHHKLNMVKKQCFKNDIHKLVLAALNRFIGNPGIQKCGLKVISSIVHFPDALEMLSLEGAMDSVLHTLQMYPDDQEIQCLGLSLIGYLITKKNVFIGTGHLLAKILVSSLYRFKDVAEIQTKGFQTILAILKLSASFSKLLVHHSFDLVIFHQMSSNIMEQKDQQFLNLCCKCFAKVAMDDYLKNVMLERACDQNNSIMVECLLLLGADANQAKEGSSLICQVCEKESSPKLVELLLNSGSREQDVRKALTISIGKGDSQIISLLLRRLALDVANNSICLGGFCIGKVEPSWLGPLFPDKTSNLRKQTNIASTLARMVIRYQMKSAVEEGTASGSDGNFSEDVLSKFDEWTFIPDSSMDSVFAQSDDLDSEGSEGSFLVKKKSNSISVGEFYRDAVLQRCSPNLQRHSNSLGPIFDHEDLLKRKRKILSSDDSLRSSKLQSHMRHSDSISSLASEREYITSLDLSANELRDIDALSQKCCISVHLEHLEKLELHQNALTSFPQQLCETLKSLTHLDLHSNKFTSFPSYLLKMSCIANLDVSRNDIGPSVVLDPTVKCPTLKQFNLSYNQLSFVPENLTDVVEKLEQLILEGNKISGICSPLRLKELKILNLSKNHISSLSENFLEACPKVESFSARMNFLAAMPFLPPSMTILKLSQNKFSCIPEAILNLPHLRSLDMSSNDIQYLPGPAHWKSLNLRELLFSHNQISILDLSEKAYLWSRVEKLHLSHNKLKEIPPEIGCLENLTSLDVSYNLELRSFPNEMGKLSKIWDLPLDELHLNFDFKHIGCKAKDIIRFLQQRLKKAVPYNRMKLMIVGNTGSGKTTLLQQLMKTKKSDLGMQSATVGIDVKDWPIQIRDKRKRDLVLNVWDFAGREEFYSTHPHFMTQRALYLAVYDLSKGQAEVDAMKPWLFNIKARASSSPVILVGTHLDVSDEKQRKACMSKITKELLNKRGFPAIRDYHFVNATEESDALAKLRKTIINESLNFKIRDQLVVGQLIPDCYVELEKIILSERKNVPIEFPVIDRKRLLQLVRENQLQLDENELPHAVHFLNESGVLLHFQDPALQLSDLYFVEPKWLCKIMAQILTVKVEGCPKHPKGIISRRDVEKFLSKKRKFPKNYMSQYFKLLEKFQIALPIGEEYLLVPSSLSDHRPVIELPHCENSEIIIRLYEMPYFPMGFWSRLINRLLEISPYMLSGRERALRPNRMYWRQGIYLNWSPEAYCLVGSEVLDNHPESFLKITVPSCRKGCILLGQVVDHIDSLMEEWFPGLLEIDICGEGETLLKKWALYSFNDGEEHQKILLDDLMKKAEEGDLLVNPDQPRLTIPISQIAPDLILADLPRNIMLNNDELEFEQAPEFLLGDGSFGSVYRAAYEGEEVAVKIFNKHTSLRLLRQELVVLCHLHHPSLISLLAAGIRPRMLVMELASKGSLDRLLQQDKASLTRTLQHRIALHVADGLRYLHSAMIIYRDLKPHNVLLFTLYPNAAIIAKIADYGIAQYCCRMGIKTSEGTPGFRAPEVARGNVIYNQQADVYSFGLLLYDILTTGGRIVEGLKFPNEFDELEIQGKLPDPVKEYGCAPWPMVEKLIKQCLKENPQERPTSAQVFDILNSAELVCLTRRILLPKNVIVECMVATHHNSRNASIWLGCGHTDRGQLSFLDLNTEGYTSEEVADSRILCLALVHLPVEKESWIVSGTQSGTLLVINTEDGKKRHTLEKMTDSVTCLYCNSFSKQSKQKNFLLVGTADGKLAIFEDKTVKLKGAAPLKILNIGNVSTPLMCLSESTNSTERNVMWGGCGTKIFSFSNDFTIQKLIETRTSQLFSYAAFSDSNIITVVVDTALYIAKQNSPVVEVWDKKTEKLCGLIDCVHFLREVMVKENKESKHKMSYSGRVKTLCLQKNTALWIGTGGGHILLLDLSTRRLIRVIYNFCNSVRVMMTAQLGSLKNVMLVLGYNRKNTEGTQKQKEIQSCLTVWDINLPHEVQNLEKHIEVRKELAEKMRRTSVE
T1 sequence (Q5S007 whole entry): as above

SMILES	IC50 [1]	IC50 [2]
C[C@@H]1C[C@H](n2c(C3CC(=O)N(c4cnn(C)c4)C3)nc3cnc4ccc(Cl)cc4c32)CCO1 (stereo partly drawn) [Compound 108, 4-{8-chloro-1-[(2R,4R)-2-methyloxan-4-yl]-1H-imidazo[4,5-c]quinolin-2-yl}-1-(1-methyl-1H-pyrazol-4-yl)pyrrolidin-2-one]	42.8 nM	0.981 nM
C[C@@H]1C[C@H](n2c(C3CCN(CC4CC4)C(=O)C3)nc3cnc4ccc(C#N)cc4c32)CCO1 (stereo partly drawn) [Compound 49, 2-[1-(cyclopropylmethyl)-2-oxopiperidin-4-yl]-1-[(2R,4R)-2-methyloxan-4-yl]-1H-imidazo[4,5-c]quinoline-8-carbonitrile]	871 nM	15.3 nM
COc1nc(C2CC2)ncc1NC(=O)Cc1nc2cnc3ccc(C#N)cc3c2n1[C@@H]1CCO[C@H](C)C1 [Compound 255, N-(2-cyclopropyl-4-methoxy-5-pyrimidinyl){3-[(2R,4R)-2-methyltetrahydro-2H-pyran-4-yl]-12-cyano-3,5,8-triazatricyclo[7.4.0.0^2,6]trideca-1,4,6,8,10,12-hexaen-4-yl}acetamide]	3.92 nM	0.433 nM
COc1nc(C)nc(C)c1NC(=O)Cc1nc2cnc3ccc(C#N)cc3c2n1[C@@H]1CCO[C@H](C)C1 [Compound 203, N-(4-methoxy-2,6-dimethyl-5-pyrimidinyl){3-[(2R,4R)-2-methyltetrahydro-2H-pyran-4-yl]-12-cyano-3,5,8-triazatricyclo[7.4.0.0^2,6]trideca-1,4,6,8,10,12-hexaen-4-yl}acetamide]	136 nM	0.338 nM
C[C@@H]1C[C@H](n2c(CC(=O)NCc3cnn(C)c3)nc3cnc4ccc(C#N)cc4c32)CCO1 [Compound 87, 2-{8-cyano-1-[(2R,4R)-2-methyloxan-4-yl]-1H-imidazo[4,5-c]quinolin-2-yl}-N-[(1-methyl-1H-pyrazol-4-yl)methyl]acetamide]	27.4 nM	0.473 nM
Cc1cc(CNC(=O)Cc2nc3cnc4ccc(C#N)cc4c3n2[C@@H]2CCO[C@H](C)C2)no1 [Compound 176, 2-{8-cyano-1-[(2R,4R)-2-methyloxan-4-yl]-1H-imidazo[4,5-c]quinolin-2-yl}-N-[(5-methyl-1,2-oxazol-3-yl)methyl]acetamide]	5.56 nM	0.323 nM
CC(C)n1cc(NC(=O)Cc2nc3cnc4ccc(C#N)cc4c3n2[C@@H]2CCO[C@H](C)C2)cn1 [Compound 306, N-(1-isopropyl-4-pyrazolyl){3-[(2R,4R)-2-methyltetrahydro-2H-pyran-4-yl]-12-cyano-3,5,8-triazatricyclo[7.4.0.0^2,6]trideca-1(13),2(6),4,7,9,11-hexaen-4-yl}acetamide]	16 nM	0.721 nM
C[C@@H]1C[C@H](n2c(CC(=O)Nc3cnc(C(F)(F)F)nc3)nc3cnc4ccc(C#N)cc4c32)CCO1 [Compound 321, N-[2-(trifluoromethyl)-5-pyrimidinyl]{3-[(2R,4R)-2-methyltetrahydro-2H-pyran-4-yl]-12-cyano-3,5,8-triazatricyclo[7.4.0.0^2,6]trideca-1(9),2(6),4,7,10,12-hexaen-4-yl}acetamide]	25.2 nM	0.66 nM
C[C@@H]1C[C@H](n2c([C@H]3CCN(S(C)(=O)=O)C3)nc3cnc4ccc(C#N)cc4c32)CCO1 [Compound 39, 2-[(3S)-1-methanesulfonylpyrrolidin-3-yl]-1-[(2R,4R)-2-methyloxan-4-yl]-1H-imidazo[4,5-c]quinoline-8-carbonitrile]	894 nM	5.27 nM
CN1CC(n2c(C3CC(=O)N(CC4CC4)C3)nc3cnc4ccc(C#N)cc4c32)CCC1=O (single isomer, unassigned) [Compound 139]	1600 nM	56 nM
Cc1ncc(NC(=O)Cc2nc3cnc4ccc(C#N)cc4c3n2[C@@H]2CCO[C@H](C)C2)c(C)n1 [Compound 261, N-(2,4-dimethyl-5-pyrimidinyl){3-[(2R,4R)-2-methyltetrahydro-2H-pyran-4-yl]-12-cyano-3,5,8-triazatricyclo[7.4.0.0^2,6]trideca-1,4,6,8,10,12-hexaen-4-yl}acetamide]	10.4 nM	0.512 nM
C[C@@H]1C[C@H](n2c(CC(=O)N[C@@H](C)c3ccccn3)nc3cnc4ccc(C#N)cc4c32)CCO1 [Compound 189, 2-{8-cyano-1-[(2R,4R)-2-methyloxan-4-yl]-1H-imidazo[4,5-c]quinolin-2-yl}-N-[(1S)-1-(pyridin-2-yl)ethyl]acetamide]	1.64 nM	0.332 nM
C[C@@H]1C[C@H](n2c(C3CN(S(C)(=O)=O)C3)nc3cnc4ccc(C#N)cc4c32)CCO1 [Compound 67, 2-(1-methanesulfonylazetidin-3-yl)-1-[(2R,4R)-2-methyloxan-4-yl]-1H-imidazo[4,5-c]quinoline-8-carbonitrile]	500 nM	3.03 nM
COc1c(NC(=O)Cc2nc3cnc4ccc(C#N)cc4c3n2[C@@H]2CCO[C@H](C)C2)cnn1C [Compound 224, N-(5-methoxy-1-methyl-4-pyrazolyl){3-[(2R,4R)-2-methyltetrahydro-2H-pyran-4-yl]-12-cyano-3,5,8-triazatricyclo[7.4.0.0^2,6]trideca-1,4,6,8,10,12-hexaen-4-yl}acetamide]	87.9 nM	1.42 nM
C[C@@H]1C[C@H](n2c(CC(=O)Nc3cc(C(F)(F)F)on3)nc3cnc4ccc(C#N)cc4c32)CCO1 [Compound 339, N-[5-(trifluoromethyl)-3-isoxazolyl]{3-[(2R,4R)-2-methyltetrahydro-2H-pyran-4-yl]-12-cyano-3,5,8-triazatricyclo[7.4.0.0^2,6]trideca-1(9),2(6),4,7,10,12-hexaen-4-yl}acetamide]	11.6 nM	1.13 nM
CC(C)NC(=O)Cc1nc2cnc3ccc(C#N)cc3c2n1[C@@H]1CCO[C@H](C)C1 [Compound 14, 2-{8-cyano-1-[(2R,4R)-2-methyloxan-4-yl]-1H-imidazo[4,5-c]quinolin-2-yl}-N-(propan-2-yl)acetamide]	43.7 nM	7.01 nM
